From article PMC8694143 (Microbiology Spectrum, 2021) come the findings set out here.

Series [1] is described as follows: Circular dichroism spectroscopy. The format is physicochemical. The note with it: CD, 50% TFE (vol/vol), peptide 0.2 mg/mL, room temperature. How it is done:
Peptides were dissolved in ultrapure water or 50% TFE (vol/vol) at a concentration of 0.2 mg/mL for spectroscopy. Spectra of samples in a 1 mm pathlength quartz cuvette were recorded from 180 to 260 nm at 0.5 nm steps using an Applied Photophysics Chirascan Plus CD spectrophotometer operating at room temperature.
In general terms: Circular dichroism is widely used to follow secondary structure.

In another series the test system is MRSA ATCC BAA-2313. As to the kind of experiment: MIC determination in broth. To be noted: STIP3 variants, highest conc. tested 100 μg/mL; cation-adjusted MH broth, ~10^5 CFU/mL, 2-fold dilution series, 37°C, 16 h. The format is cell-based, Staphylococcus aureus. In short, it runs like this: (§1)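 Peptides from the initial screen are tested as 2-fold dilution series against an inoculum of about 10^5 CFU/mL in cation-adjusted Mueller-Hinton medium, incubated at 37°C without agitation.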

The test system of another series is S. aureus ATCC 29213. As to the kind of experiment: MIC determination in broth. Format: cell-based, Staphylococcus aureus. The note with it: STIP3 variants, highest conc. tested 100 μg/mL; cation-adjusted MH broth, ~10^5 CFU/mL, 2-fold dilution series, 37°C, 16 h. A digest of the protocol: as §1
The next series relates to MRSA ATCC BAA-41. Description: MIC determination in broth. The format is cell-based, Staphylococcus aureus. To be noted: STIP3 variants, highest conc. tested 100 μg/mL; cation-adjusted MH broth, ~10^5 CFU/mL, 2-fold dilution series, 37°C, 16 h. A digest of the protocol:
as §1

The subject of another series is MRSA ATCC BAA-2094. As to the kind of experiment: MIC determination in broth. The format is cell-based, Staphylococcus aureus. The note with it: STIP3 variants, highest conc. tested 100 μg/mL; cation-adjusted MH broth, ~10^5 CFU/mL, 2-fold dilution series, 37°C, 16 h. A digest of the protocol:
as §1

A further series deals with MRSA ATCC BAA-42. As to the kind of experiment: MIC determination in broth. Format: cell-based, Staphylococcus aureus. The note with it: STIP3 variants, highest conc. tested 100 μg/mL; cation-adjusted MH broth, ~10^5 CFU/mL, 2-fold dilution series, 37°C, 16 h. In short, it runs like this: as §1
Another series has as its system MRSA ATCC BAA-44. As to the kind of experiment: MIC determination in broth. Format: cell-based, Staphylococcus aureus. To be noted: STIP3 variants, highest conc. tested 100 μg/mL; cation-adjusted MH broth, ~10^5 CFU/mL, 2-fold dilution series, 37°C, 16 h. In short, it runs like this:
as §1

Another series relates to MRSA ATCC BAA-1683. Description: MIC determination in broth. Format: cell-based, Staphylococcus aureus. To be noted: STIP3 variants, highest conc. tested 100 μg/mL; cation-adjusted MH broth, ~10^5 CFU/mL, 2-fold dilution series, 37°C, 16 h. In short, it runs like this:
as §1

The test system of series [2] is MRSA ATCC 33592 on 3D EpiDerm skin tissues. As to the kind of experiment: Three-dimensional NHEK skin model of MRSA infection. Format: cell-based, Staphylococcus aureus. The note with it: 25 μg/mL (4× MIC), 100 μL apical, 16 h after 4 h colonization, 37°C, 5% CO2. How it is done: 3D EpiDerm skin tissues (MatTek EPI-200-AFAB; antifungal and antibiotic-free; 9 mm) contained within a plastic insert lined with a permeable 0.4 μm membrane were transferred to 12-well plates containing antibiotic assay medium (600 μL/well). A fresh MRSA ATCC 33592 culture in the log phase of growth was centrifuged at 10,000 rpm for 5 min to harvest bacterial cells before resuspension in sterile PBS to an […] 5 × 10^6 CFU/mL. Tissues were incubated with 100 μL of the bacterial cell suspension (5 × 10^5 CFU) for 4 h at 37°C in a humidified 5% CO2 environment. After 4 h, the bacterial cell suspension was removed and the apical surface of each tissue was washed 3 times with PBS to remove nonadherent bacterial cells. Next, the colonized skin tissues were treated with a 100 μL volume of STIP3-29 at 25 μg/mL. An equal volume of sterile PBS was used for untreated control experiments. Tissues were then incubated at 37°C in a humidified 5% CO2 environment for 16 h. […] The number of MRSA colonies on each plate was counted and an average CFU/mL was determined for treated and untreated samples. […] The statistical differences in colonization were evaluated using an unpaired two-tailed Student’s t test to compare pretreated (control colonization; CC), untreated control (PBS), and STIP3-29 treated groups.

The subject of another series is S. epidermidis. As to the kind of experiment: MIC determination in broth. Format: cell-based, Staphylococcus epidermidis. The note with it: isolate from the healthy quarter of a dairy cow; MH broth. How it is done: (§2) The MICs were measured for bioactive peptides identified from the initial screen. Cation-adjusted Mueller-Hinton (MH) broth was used as the growth medium for MIC determination experiments. Bacterial cultures were diluted to an OD of 5 × 10^−4 (∼10^5 CFU/mL) in 200 μL MH broth mixed with peptides in a 2-fold dilution series arrayed in 96-well plates. Plates were incubated without shaking at 30 or 37°C depending on the organism.

A further series relates to sheep red blood cells. Description: Hemolytic activity assay. The format is cell-based. The note with it: peptides at 100 μg/mL, 1 h, relative to the δ-toxin and other STIPs. How it is done:
Thirty-five percent defibrinated sheep’s blood (vol/vol) was centrifuged for 5 min at 4,000 rpm to harvest red blood cells. The cells were washed three times with PBS and harvested by centrifugation prior to dilution to 15% (vol/vol) in PBS in order to evaluate peptide-mediated hemolysis. The assay was performed in 96-well microtiter plates using peptides at 100 μg/mL in a 200-μL volume. […] was used as a negative control and Triton X-100 (0.1% vol/vol) was used as a positive control for complete lysis. After 1 h of incubation, the 96-well microtiter plates were centrifuged at 4,500 rpm for 10 min and a 150 μL aliquot of the supernatant from each sample was carefully transferred to a new 96-well plate. The absorbance of the supernatant was then measured at 540 nm using a Varioskan Lux plate reader (Thermo Scientific). The hemolytic activity is reported relative to complete lysis (%) obtained using Triton X-100. Experiments were performed in triplicate, and statistical differences in hemolysis were measured using an unpaired two-tailed Student’s t test to compare the STIPs and deformylated δ-toxin to the formylated δ-toxin.

A further series concerns S. auricularis. Description: MIC determination in broth. The format is cell-based, Staphylococcus auricularis. The note with it: isolate from the healthy quarter of a dairy cow; MH broth. How it is done: as §2

No end group written: not given here.

Turning to TVGGLVKWILKTVKKFA-NH2 [STIP3-29], the “α-Helical content (%)” value in series [1] is given as 61%. Also, the “MIC, S. aureus ATCC BAA 2313 (SCCmec XI)” value in the series with MRSA ATCC BAA-2313 was 6.25 µg/mL. Besides, the “MIC, S. aureus ATCC 29213” value against S. aureus ATCC 29213 was 12.5 µg/mL. The “MIC, S. aureus ATCC BAA 41 (SCCmec II)” value in the series on MRSA ATCC BAA-41 was 6.25 µg/mL. The “MIC, S. aureus ATCC BAA 2094 (SCCmec V)” value in the series on MRSA ATCC BAA-2094 is 6.25 µg/mL. In addition, the “MIC, S. aureus ATCC BAA 42 (SCCmec VI)” value in the series on MRSA ATCC BAA-42 came to 6.25 µg/mL. The “MIC, S. aureus ATCC BAA 44 (SCCmec I)” value with MRSA ATCC BAA-44 stood at 6.25 µg/mL. Further, the “MIC, S. aureus ATCC BAA 1683 (SCCmec IV)” value with MRSA ATCC BAA-1683 was 6.25 µg/mL. Further, the “Effect on the MRSA population on colonized NHEK tissue” value in series [2] is recorded as “prevented the expansion of the MRSA population”. In the series with S. epidermidis, the “MIC, S. epidermidis” value turned out to be 3.13 µg/mL. Besides, the “Change of hemolytic activity” value with sheep red blood cells was “increase in hemolysis”. The “MIC, S. auricularis” value with S. auricularis was determined as 1.56 µg/mL.
